Results from patent publication US7011834B1, “Immunomodulating dimers” (The Board of Trustees of Leland Stanford Junior University, priority 1987, dated 2006).
One block for each substance: values may come before it. Where no end group is shown, it is not given here.

Tests used:
[1] = tested on: CD8+CTL line specific for HLA-A2; assay: Cytotoxicity assay: inhibition of lysis by established CTL, 51Cr-labeled JY targets; format: cell-based, human; details: for inhibition of lysis by established CTL: HLA-A2 specific CD8+CTL, JY targets, peptides 100 μg/ml, 4 h assay
Experimental: Cytotoxicity Assay. CTL assays were performed as described using ^51Cr-labeled EBV transformed B cells expressing the appropriate HLA allele as targets [[…] et al., J. Immunol. (1982) 129:2001]. In the present protocol, a CD8+CTL line specific for HLA-A2 was tested in the presence of various peptides for lysis of ^51Cr-labeled JY targets. Peptides were added to a final concentration of 100 μg/ml at the initiation of the 4 h assay. Each determination was the mean of triplicate wells. […] In these determinations, inhibition of cytolysis, as described above, employed the CTL cell line AJY, a long term CD8+CTL line specific for HLA-A2 and the target cell was the B-lymphoblastoid cell line JY (HLA-A2, B7). The cytotoxicity assay was performed as described by Clayberger et al., J. Exp. Med. (1984) 162:1709-1714; and Reiss et al., Proc Natl Acad Sci USA (1980) 77:5432-5436. The peptides were preincubated for 30 min with 1-3×10^3 CTLs before addition of 10^3 51Cr-labeled B-lymphoblastoid target cells. The results are reported for varying concentrations of the peptide with varying ratios of the two cell lines.

[2] = Half-life of peptide in rats; details: rat, in vivo, preliminary studies
Experimental: Therefore, we tested whether splenocytes obtained from rats treated with the peptides in vivo could differentiate into CTL ex vivo. In preliminary studies, the half-life of the B7.75-84 peptide was determined to be 2–3 hours in rats.

[3] = tested on: Lew specific CTL precursors in splenocytes; assay: Limiting dilution assay for CTL precursors in splenocytes after in vivo peptide; design: species or system rat; details: PVG rats; for [CTL precursor frequency]^−1: single iv 2 mg, Lew stimulators
Experimental: The effect of peptides on CTL precursor frequencies in splenocytes was tested as follows. Limiting dilution analysis was carried out essentially as described (Moeller et al. 1993, supra; Skinner and Marbrook. J. Exp. Med. (1976) 143:1562). Briefly, spleens were removed from naive animals or from animals that had received an allograft a minimum of 60 days earlier and then teased into a single cell suspension. Responder cells were plated from 1000 to 40,000 cells per well (24 replicates per concentration) into round bottom microliter wells in RPMI 1640 supplemented with 10% fetal bovine serum (Hyclone, Logan, Utah), 2 mM L-glutamine, 5×10^−5M β-mercaptoethanol, 100 U/ml penicillin, 100 μg/ml streptomycin, 20% supernatant from Concanavalin A activated rat spleen cells, and 50 μM α-methyl mannoside. Then, 5×10^5 irradiated (2000 rads) stimulator cells were added to each well and plates were incubated in a humidified CO2 incubator. After 5 days, aliquots were removed and tested for lysis of ^51Cr-labeled Concanavalin A activated blasts. Aliquots of supernatant were counted in a gamma counter and CTL precursor frequency determined by linear regression (Skinner and Marbrook. 1976, supra). Wells were considered positive if specific release was >10%.
PVG (RT1^c) or ACI […] rats were treated with a single intravenous injection of saline or 2 mg of A2.75-84, B7.75-84, B2702.75-84, or RT1^a.75-84 peptide. Their spleens were removed on different days after peptide treatment, cultured under limiting dilution conditions for 5 days with irradiated (2000R) splenocytes from Lewis rats; i.e., Lew (RT1^1) stimulator cells, and assayed for lysis of ^51Cr-labeled Lew blasts. CTL precursor frequency was determined by linear regression analysis.

Substance: B7.84–75/75–84: SEQ ID NO:27 (also NO:35); Table 1 sequence read from dashes: YGRLNRLSERRESLRNLRGY (listed as Homo sapiens)
inhibition of lysis by established CTL [1]: did not inhibit CTL-mediated lysis at any concentration tested

Substance: B2702.70–84: SEQ ID NO:33, the 15-mer; Table 1 sequence read from dashes: KAQTDRENLRIALRY (listed as Homo sapiens)
inhibition of lysis by established CTL [1]: comparably effective in inhibiting cytolysis to B2072.75-84

Substance: B2702.75–84T^80: SEQ ID NO:25; threonine replaces isoleucine at position 80: RENLRTALRY (listed as Homo sapiens)
inhibition of lysis by established CTL [1]: did not inhibit lysis

Substance: REDLRIALRY (listed as Homo sapiens) [B2702.75–84D^77, aspartic replaces asparagine at position 77]
inhibition of lysis by established CTL [1]: did not inhibit lysis

Substance: RENLRILLRY (listed as Homo sapiens) [B2702.75–84L^81, leucine replaces alanine at position 81]
inhibition of lysis by established CTL [1]: inhibited lysis comparably to 02.75-84

half-life [2]: 2 to 3 h
Substance: RESLRNLRGY [B7.75–84]

Substance: RVDLRTLRGY (listed as Homo sapiens) [RT1A.75–84, peptide corresponding to the same residues from a rat MHC class I molecule, reference compound]
[CTL precursor frequency]^−1 ([3]; 0 days after peptide injection): 56,583
[CTL precursor frequency]^−1 ([3]; 1 day after peptide injection): 54,631
[CTL precursor frequency]^−1 ([3]; 7 days after peptide injection): 55,647
[CTL precursor frequency]^−1 ([3]; 10 days after peptide injection): 56,583
precursor frequency of Lew specific cells in splenocytes (1 in) ([3]; independent of the day on which the spleen was removed): ~55,000

Substance: WDRETQICKAKAQTDRENLRIALRY [B2702.60–84]
potency relative to B2702.75-84, based on concentration required to achieve 50% inhibition of cytotoxicity [1]: approximately 5 fold
